Publication PMC9516332 (Frontiers in Oncology, 2022)
Like-named read-outs stand apart in the source and are kept apart here.

What was measured:
AP-1060 (ETV6-NTRK3) = assay: Cell viability assay; conditions: read-out: IC50 in cell proliferation assay
134 cancer cell lines = assay: Cell viability assay (ATPlite, 72 hours), IC50 on cancer cell line panel

Measured: IC50

CCCS(=O)(=O)Nc1ccc(F)c(C(=O)c2c[nH]c3ncc(-c4ccc(Cl)cc4)cc23)c1F [vemurafenib]
1.83 µM: 134 cancer cell lines; Homo sapiens, DU-4475, read-out: IC50 in cell proliferation assay, cell line DU4475 (BRAF p.V600E)
9.43 µM: 134 cancer cell lines; Homo sapiens, HT-1080, read-out: IC50 in cell proliferation assay, HT-1080 cell line
20.1 µM: 134 cancer cell lines; Homo sapiens, ACHN, read-out: IC50 in cell proliferation assay, cell line ACHN
25.1 µM: 134 cancer cell lines; Homo sapiens, 786-0, read-out: IC50 in cell proliferation assay, cell line 786-O
8.9 µM: 134 cancer cell lines; Homo sapiens, MOLM-13, read-out: IC50 in cell proliferation assay, MOLM-13 cell line (FLT3 ITD)
31.6 µM: AP-1060 (ETV6-NTRK3)
31.2 µM: 134 cancer cell lines; Homo sapiens, A549, read-out: IC50 in cell proliferation assay, cell line A-549 | 134 cancer cell lines; Homo sapiens, BT-549, read-out: IC50 in cell proliferation assay, cell line BT-549
1.28 µM: 134 cancer cell lines; Homo sapiens, LS-411N, read-out: IC50 in cell proliferation assay, LS411N cell line (BRAF p.V600E)
21.6 µM: 134 cancer cell lines; Homo sapiens, A498, read-out: IC50 in cell proliferation assay, cell line A-498
0.744 µM: 134 cancer cell lines; Homo sapiens, COLO 205, read-out: IC50 in cell proliferation assay, cell line COLO 205 (BRAF p.V600E)
28.5 µM: 134 cancer cell lines; Homo sapiens, KU812, read-out: IC50 in cell proliferation assay, Ku812 cell line
28.2 µM: 134 cancer cell lines; Homo sapiens, BXPC-3, read-out: IC50 in cell proliferation assay, cell line BxPC-3
20.7 µM: 134 cancer cell lines; Homo sapiens, KATO III, read-out: IC50 in cell proliferation assay, KATO III cell line (FGFR2 amplification)
1.62 µM: 134 cancer cell lines; Homo sapiens, EOL1, read-out: IC50 in cell proliferation assay, cell line EoL-1 (FIP1L1-PDGFRA)
1.76 µM: 134 cancer cell lines; Homo sapiens, A-375, read-out: IC50 in cell proliferation assay, cell line A-375 (BRAF p.V600E)
3.25 µM: 134 cancer cell lines; Homo sapiens, G-361, read-out: IC50 in cell proliferation assay, cell line G-361 (BRAF p.V600E)
29.5 µM: 134 cancer cell lines; Homo sapiens, KMS-11, read-out: IC50 in cell proliferation assay, KMS-11 cell line (FGFR3 p.Y373C)
30.6 µM: 134 cancer cell lines; Homo sapiens, Hs-578T, read-out: IC50 in cell proliferation assay, Hs 578T cell line
28.3 µM: 134 cancer cell lines; Homo sapiens, Jurkat E6.1, read-out: IC50 in cell proliferation assay, Jurkat E6.1 cell line
2.22 µM: 134 cancer cell lines; Homo sapiens, COLO-829, read-out: IC50 in cell proliferation assay, cell line COLO 829 (BRAF p.V600E)
27.6 µM: 134 cancer cell lines; Homo sapiens, CCRF-CEM, read-out: IC50 in cell proliferation assay, cell line CCRF-CEM
> 31.6 µM: 134 cancer cell lines; HEC-6, read-out: IC50 in cell proliferation assay, HEC-6 cell line (EGFR p.A289V) | 134 cancer cell lines; Homo sapiens, 769-P, read-out: IC50 in cell proliferation assay, cell line 769-P | 134 cancer cell lines; Homo sapiens, A 172, read-out: IC50 in cell proliferation assay, cell line A-172 | 134 cancer cell lines; Homo sapiens, A204, read-out: IC50 in cell proliferation assay, cell line A-204 | 134 cancer cell lines; Homo sapiens, A704, read-out: IC50 in cell proliferation assay, cell line A-704 | 134 cancer cell lines; Homo sapiens, A-427, read-out: IC50 in cell proliferation assay, cell line A-427 | 134 cancer cell lines; Homo sapiens, AN3-CA, read-out: IC50 in cell proliferation assay, cell line AN3-CA (FGFR2 p.N549K) | 134 cancer cell lines; Homo sapiens, ASPC1, read-out: IC50 in cell proliferation assay, cell line AsPC-1 | 134 cancer cell lines; Homo sapiens, AU565, read-out: IC50 in cell proliferation assay, cell line AU565 (ERBB2 amplification) | 134 cancer cell lines; Homo sapiens, BT-20, read-out: IC50 in cell proliferation assay, cell line BT-20 | 134 cancer cell lines; Homo sapiens, BT-474, read-out: IC50 in cell proliferation assay, cell line BT-474 (ERBB2 amplification) | 134 cancer cell lines; Homo sapiens, C-33-A, read-out: IC50 in cell proliferation assay, cell line C-33 A | 134 cancer cell lines; Homo sapiens, CAL-27, read-out: IC50 in cell proliferation assay, cell line CAL-27 | 134 cancer cell lines; Homo sapiens, CCF-STTG1, read-out: IC50 in cell proliferation assay, cell line CCF-STTG1 | 134 cancer cell lines; Homo sapiens, DLD-1, read-out: IC50 in cell proliferation assay, cell line DLD-1 | 134 cancer cell lines; Homo sapiens, Daoy, read-out: IC50 in cell proliferation assay, cell line Daoy | 134 cancer cell lines; Homo sapiens, DoTc2-4510, read-out: IC50 in cell proliferation assay, cell line DoTc2 4510 | 134 cancer cell lines; Homo sapiens, FaDu, read-out: IC50 in cell proliferation assay, cell line FaDu | 134 cancer cell lines; Homo sapiens, HCC827, read-out: IC50 in cell proliferation assay, cell line HCC827 (EGFR exon19del) | 134 cancer cell lines; Homo sapiens, HCC4006, read-out: IC50 in cell proliferation assay, cell line HCC4006 (EGFR exon19del) | 134 cancer cell lines; Homo sapiens, HCT-15, read-out: IC50 in cell proliferation assay, cell line HCT 15 | 134 cancer cell lines; Homo sapiens, HCT-116, read-out: IC50 in cell proliferation assay, cell line HCT 116 | 134 cancer cell lines; Homo sapiens, HEC-1, read-out: IC50 in cell proliferation assay, HEC-1 cell line | 134 cancer cell lines; Homo sapiens, HEC-1B, read-out: IC50 in cell proliferation assay, HEC-1-B cell line (EGFR p.A864V) | 134 cancer cell lines; Homo sapiens, HL-60, read-out: IC50 in cell proliferation assay, HL-60 cell line | 134 cancer cell lines; Homo sapiens, HT, read-out: IC50 in cell proliferation assay, HT cell line | 134 cancer cell lines; Homo sapiens, Hs746T, read-out: IC50 in cell proliferation assay, Hs 746.T cell line (MET exon14skip + amplification) | 134 cancer cell lines; Homo sapiens, HuTu80, read-out: IC50 in cell proliferation assay, HuTu 80 cell line | 134 cancer cell lines; Homo sapiens, J82, read-out: IC50 in cell proliferation assay, J82 cell line | 134 cancer cell lines; Homo sapiens, K562, read-out: IC50 in cell proliferation assay, K-562 cell line | 134 cancer cell lines; Homo sapiens, KG-1, read-out: IC50 in cell proliferation assay, KG-1 cell line (FGFR1OP2-FGFR1) | 134 cancer cell lines; Homo sapiens, KLE, read-out: IC50 in cell proliferation assay, KLE cell line | 134 cancer cell lines; Homo sapiens, Kasumi 1, read-out: IC50 in cell proliferation assay, Kasumi-1 cell line (KIT p.N822K) | 134 cancer cell lines; Homo sapiens, LC-2-ad, read-out: IC50 in cell proliferation assay, LC-2/ad cell line (CCDC6-RET) | 134 cancer cell lines; Homo sapiens, LNCaP-Clone-FGC, read-out: IC50 in cell proliferation assay, LNCaP clone FGC cell line | 134 cancer cell lines; Homo sapiens, LS174T, read-out: IC50 in cell proliferation assay, LS174T cell line | 134 cancer cell lines; Homo sapiens, LoVo, read-out: IC50 in cell proliferation assay, LoVo cell line | 134 cancer cell lines; Homo sapiens, MCF7, read-out: IC50 in cell proliferation assay, MCF-7 cell line | 134 cancer cell lines; Homo sapiens, MDA-MB-231, read-out: IC50 in cell proliferation assay, MDA-MB-231 cell line | 134 cancer cell lines; Homo sapiens, MDA-MB-453, read-out: IC50 in cell proliferation assay, MDA-MB-453 cell line | 134 cancer cell lines; Homo sapiens, MDA-MB-468, read-out: IC50 in cell proliferation assay, MDA-MB-468 cell line | 134 cancer cell lines; Homo sapiens, MG-63, read-out: IC50 in cell proliferation assay, MG-63 cell line | 134 cancer cell lines; Homo sapiens, MIA PaCa-2, read-out: IC50 in cell proliferation assay, MIA PaCa-2 cell line | 134 cancer cell lines; Homo sapiens, MKN-45, read-out: IC50 in cell proliferation assay, MKN45 cell line (MET amplification)
